This is an account of results in article PMC12736570, “The Absorption, Distribution, Excretion, and In Vitro Hepatic Microsomal Metabolism of the Novel CDK Compound XMD12 in Sprague-Dawley Rats” (Pharmaceutics, 2025).

For data set [1] the following is noted: cited from earlier work.
Data set [2] has as its system plasma protein. To be noted: cited from earlier work.
Data set [3] is described as follows: Tissue distribution study after gastric gavage. Format: in vivo, Sprague-Dawley rats. The settings on record: gastric gavage 20 mg/kg. The method, then:
Following a 12-h fasting period, 25 SD rats were randomly divided into 5 groups, each comprising 5 rats. These rats were administered the drug at a dosage of 20 mg/kg through gastric gavage. […] Blood was drawn from the abdominal aorta to ensure minimal residual blood within the rats, followed by euthanasia. A variety of tissues including the heart, liver, spleen, lungs, kidneys, stomach, small intestine, fat, muscles, and brain were then harvested. After weighing, all samples were stored in a freezer at −80 °C. The subsequent processing and analysis followed the described methods, aiming to determine the concentration of XMD12 in each tissue sample at different time intervals.

Data set [4] can be described thus: Urine and feces excretion study after gastric gavage. To be noted: gastric gavage 20 mg/kg. Format: in vivo, Sprague-Dawley rats. The method, then: Five male SD rats were housed individually in metabolic cages for adaptation for a day. During this period, urine and feces were collected as blank samples. The following day, the rats were orally administered XMD12 at a dose of 20 mg/kg by gastric gavage. Urine and feces samples were then collected at intervals of 0–4 h, 4–8 h, 8–12 h, 12–24 h, and 24–36 h post-administration. Measurements of volume and weight were recorded for each sample. Employing the outlined procedures, these samples underwent processing and analysis to determine the presence of XMD12 across different time spans within the collected urine and feces samples.

A short description of data set [5]: Plasma pharmacokinetics after single intravenous administration and gastric gavage. The settings on record: for AUC0-t / AUC0-∞ / CL / Cmax / MRT0-t / Tmax / V / t1/2: n = 5. Format: in vivo, Sprague-Dawley rats. On the procedure:
Ten healthy SD rats were divided into two groups, each comprising five rats. Following a 12-h fasting period, the rats in the respective groups were administered XMD12 at dosages of 10 mg/kg via gastric gavage and 2 mg/kg via tail vein injection. The rats were anesthetized with isoflurane, and blood samples of approximately 150 uL were collected via the eye socket vein using capillaries. These samples were obtained prior to dosing (at 0 min) and at intervals of 0.083, 0.25, 0.5, 1, 1.5, 2.5, 4, 6, 8, 12 and 24 h post-dosing. The blood was then placed in centrifuge tubes pre-treated with heparin sodium, centrifuged at 3000 rpm for 10 min, and the resulting supernatant was stored in a refrigerator at −20 °C. The plasma samples underwent processing as per the outlined “Sample Preparation” methods and were analyzed using the specified procedures under “Instrument Conditions” to ascertain XMD12 concentration in the rat plasma at various time points. Utilizing DAS 3.2.8 (BioGuider Co., Shanghai, China), pharmacokinetic software facilitated data processing, computation of pertinent pharmacokinetic parameters, and the creation of blood concentration–time curves for the drug.

A short description of data set [6]: Stability of XMD12 QC samples in rat plasma and liver homogenate. The format is in vitro ADME. The text has this: Our analytical approach adheres to a comprehensive set of validation procedures in accordance with the recommendations outlined in the U.S. Food and Drug Administration’s Bioanalytical Method Validation Guidance (USFDA, 2018). These validation steps encompass a range of critical factors, including method specificity, linearity, sensitivity, carryover effect, accuracy, precision, matrix effect, recovery, dilution integrity, and stability. In assessing the method’s selectivity, we initiated the process by comparing chromatograms obtained from various sample sources. These sources included blank rat plasma, blank rat serum samples spiked with a mixture of standards, and rat plasma samples sourced from pharmacokinetic studies conducted on rats. This evaluation concurrently aided us in identifying and addressing any potential interferences that may occur within the acquisition window of XMD12 and the internal standard (IS). To evaluate linearity, a series of XMD12 concentrations was introduced into blank plasma, allowing us to establish a linear regression equation. The calibration curve (n = 5) was constructed by plotting the ratio of peak areas of XMD12 to IS (y-axis) against the nominal concentration ratio of XMD12 to IS (x-axis), followed by subsequent linear regression analysis. The lower limit of quantification (LLOQ) was defined as the lowest concentration point on the calibration curve that guarantees reliable quantification while maintaining accuracy within the range of 80–120% and precision below 20%. We conducted assessments of intra-day and inter-day precision and accuracy by performing six replicate tests on quality control (QC) samples at concentrations of 3, 120, and 1500 ng/mL over both a single day and a span of three days. Matrix effects and extraction recovery were evaluated through a post-extraction addition approach. Furthermore, we conducted a study on the stability of QC samples with high, medium, and low concentrations under four distinct conditions. […]

Data set [7] is described as follows: Metabolic stability in rat liver microsome incubation system. The format is in vitro ADME. To be noted: rat liver microsomes. On the procedure: Rat liver microsomes (CYP450) were introduced into centrifuge tubes containing phosphate buffer. Different concentrations of the test compound were added to the experimental group, while an equal amount of buffer was added to the control group. Following a 10-min pre-incubation, NADPH was introduced to initiate the reaction, and the mixture was then incubated at 37 °C in a water bath for […]. The incubation system was composed of 10 μL of XMD12 substrate (0.5 μg/mL), 5 μL of rat liver microsomes (20 mg/mL), 20 μL of an NADPH generating system at a final concentration of 1 mM, and 465 μL of phosphate-buffered saline (pH 7.4). The NADPH generating system was prepared by mixing with 5 μL of a complementary Mix solution prior to use. This Mix solution contained MgCl2, EDTA, glucose-6-phosphate, glucose-6-phosphate dehydrogenase, and oxidized nicotinamide adenine dinucleotide phosphate (NADP^+). At intervals of 0, 5, 15, 30, 45, 60, 90, and 120 min, the reaction was halted by adding a cold acetonitrile solution containing the internal standard at a 1:2 ratio. This mixture underwent vigorous vortexing for 3 min before being centrifuged at 14,000 rpm for 10 min. The resulting supernatant was dried using nitrogen gas and subsequently reconstituted with 50% acetonitrile. After thorough vortexing for 2 min, the solution underwent a second centrifugation at 14,000 rpm for 10 min, and the supernatant was then injected into LC-MS/MS for analysis.
(In general: Microsomes from liver hold many membrane-bound enzymes, among them those of drug oxidation.)

The mark [8] stands for this setting: p.o. 10 mg∙kg^−1 (gastric gavage), SD rats.

Structures are written as SMILES. “And” between values parts separate entries of the source, which are not always exact repeats. Equal values may be shown once. Read-outs that look alike come from different tables or passages of the source.

One may read the Tmax as the time at which the peak concentration occurs. As to `CCN1CCN(Cc2ccc(Nc3ncc(F)c(-c4cc(F)c5nc(C)n(C(C)C)c5c4)n3)nc2)CC1` [Abemaciclib], the elimination half-life in data set [1] is 17 to 38 h. In data set [1] (human, in vivo), the oral bioavailability is 45% and the Tmax result is on record as “under 8 h”. In data set [1] (reported in humans), the fecal excretion was 81%. For the same compound, the plasma protein binding in data set [2] (plasma) is reported as 96.3%.

Regarding `CC(=O)c1c(C)c2cnc(Nc3ccc(N4CCNCC4)cn3)nc2n(C2CCCC2)c1=O` [Palbociclib], in data set [1], the Tmax was 6 to 12 h, the elimination half-life was 24 to 34 h and the volume of distribution is listed as about 2800 L. Besides, the “volume of distribution (Vd)” value in data set [1] (reported in humans) was ~ 2800 L. The plasma protein binding in data set [2] is 85.3%.

As for `CN(C)C(=O)c1cc2cnc(Nc3ccc(N4CCNCC4)cn3)nc2n1C1CCCC1` [Ribociclib], in data set [1] (human, in vivo), the oral bioavailability was 65.8%, the time of peak concentration (Tmax) was 1 to 5 h, the elimination half-life is 30 to 55 h and the fecal excretion is 69.1%. In data set [1] (human, in vivo), the “volume of distribution (Vd)” value was 1090 L.

One may read the Cmax as the highest concentration seen after dosing. With `COc1cc(F)ccc1-c1nc(Nc2cccc(N3CCOCC3)c2)ncc1F` [XMD12], in data set [3], the “time to peak drug concentration in gastrointestinal tissues (stomach and intestines)” value lay within 0.5 to 1 h. In addition, the brain concentration in data set [3] (1 h) was determined as 930.17 ± 762.76 ng/g. Further, in data set [3] (1 h, 20 mg/kg), the liver peak concentration was 24,768 ± 2436.62 ng/g and 24,768 ng/g. This compound also showed a liver concentration in data set [3] (5 h) of 2241.9 ± 1193.07 ng/g. For the same compound, the “liver concentration as percent of the peak value” in data set [3] (5 h post-dosing) came to 9%. In data set [3] (by 5 h), the “concentration in all tissues as percent of peak levels” value is on record as “below 10%”. For the same compound, the “interval of rapid fecal elimination” value in data set [4] lay in the range of 12 to 24 h. The “peak urinary elimination window” value in data set [4] lay within 12 to 24 h. The “cumulative fecal excretion (of the administered dose)” value in data set [4] (0–36 h) was 62.36% ± 19.97%. The “cumulative urinary excretion rate” value in data set [4] (0–36 h, 20 mg/kg) was 0.0068% and 0.0068% ± 0.0028%. Moreover, the plasma concentration result in data set [5] (gastric gavage 10 mg/kg, within 8 h) is given as “approaching the LLOQ”; in data set [5] (i.v. 2 mg/kg, by 8 h), “below the lower limit of quantification (LLOQ)”; in data set [5] (i.v. 2 mg/kg, within 30 min), 59.88 ng/mL. The AUC0-t in data set [5] (i.v. 2 mg∙kg^−1, SD rats) was determined as 357.21 ± 66.60 ng·h/mL; in data set [5] (setting [8]), 117.78 ± 28.97 ng·h/mL. Besides, the “AUC0-∞” value in data set [5] (i.v. 2 mg∙kg^−1, SD rats) came to 360.03 ± 66.00 ng·h/mL; in data set [5] (setting [8]), 120.06 ± 30.19 ng·h/mL. The CL in data set [5] (i.v. 2 mg∙kg^−1, SD rats) stood at 94.8 ± 15.8 mL/min/kg; in data set [5] (setting [8]), 1444 ± 278.7 mL/min/kg. The Cmax in data set [5] (i.v. 2 mg∙kg^−1, SD rats) was found to be 827.00 ± 191.30 ng/mL; in data set [5] (setting [8]), 38.26 ± 10.90 ng/mL. The MRT0-t in data set [5] (i.v. 2 mg∙kg^−1, SD rats) was 0.74 ± 0.08 h; in data set [5] (setting [8]), 2.475 ± 0.344 h. For the same compound, the time to peak (Tmax) in data set [5] (i.v. 2 mg∙kg^−1, SD rats) is reported as 0.083 h; in data set [5] (setting [8]), 1.300 ± 0.758 h. For the same compound, the V amounted to 12.29 ± 3.98 L/kg in data set [5] (i.v. 2 mg∙kg^−1, SD rats) and 150.59 ± 34.37 L/kg in data set [5] (setting [8]). The t1/2 in data set [5] (i.v. 2 mg∙kg^−1, SD rats) came to 1.47 ± 0.29 h; in data set [5] (setting [8]), 1.21 ± 0.16 h. In data set [5] (p.o. 10 mg/kg vs i.v. 2 mg/kg), the “peak concentration after gastric gavage relative to intravenous levels” value is on record as “below 5%”. Besides, the “F (bioavailability)” value in data set [5] (p.o. 10 mg∙kg^−1 vs i.v. 2 mg∙kg^−1, SD rats) turned out to be 6.67%. The same compound displayed a plasma half-life in data set [5] (rat plasma, route not stated) of 1 h. The “stability, Accuracy” value in data set [6] (liver, nominal 30.0 ng∙mL^−1, 6 h at room temperature) stood at 100.93%; in data set [6] (liver, nominal 30.0 ng∙mL^−1, 15 d, −80 °C), 97.53%; in data set [6] (liver, nominal 30.0 ng∙mL^−1, autosample at ambient temperature for 6 h), 100.80%; in data set [6] (liver, nominal 30.0 ng∙mL^−1, freeze–thaw (3 circles)) it was 100.47%; in data set [6] (liver, nominal 800.0 ng∙mL^−1, 6 h at room temperature) it was 101.93%; in data set [6] (liver, nominal 800.0 ng∙mL^−1, 15 d, −80 °C), 99.40%. The “stability, Accuracy” value was 99.78% in data set [6] (liver, nominal 800.0 ng∙mL^−1, freeze–thaw (3 circles)); 101.56% in data set [6] (liver, nominal 1600.0 ng∙mL^−1, 6 h at room temperature); 101.63% in data set [6] (liver, nominal 1600.0 ng∙mL^−1, 15 d, −80 °C); 100.94% in data set [6] (liver, nominal 1600.0 ng∙mL^−1, autosample at ambient temperature for 6 h); 97.75% in data set [6] (liver, nominal 1600.0 ng∙mL^−1, freeze–thaw (3 circles)); 105.58% in data set [6] (plasma, nominal 5 ng∙mL^−1, 6 h at room temperature). Further, the “stability, Accuracy” value turned out to be 94.20% in data set [6] (plasma, nominal 5 ng∙mL^−1, 15 d, −80 °C); 92.16% in data set [6] (plasma, nominal 5 ng∙mL^−1, autosample at ambient temperature for 6 h); 97.10% in data set [6] (plasma, nominal 5 ng∙mL^−1, freeze–thaw (3 circles)); 108.60% in data set [6] (plasma, nominal 90 ng∙mL^−1, 6 h at room temperature); 93.76% in data set [6] (plasma, nominal 90 ng∙mL^−1, 15 d, −80 °C); 92.44% in data set [6] (plasma, nominal 90 ng∙mL^−1, autosample at ambient temperature for 6 h). The “stability, Accuracy” value was found to be 107.22% in data set [6] (plasma, nominal 90 ng∙mL^−1, freeze–thaw (3 circles)); 110.80% in data set [6] (plasma, nominal 800 ng∙mL^−1, 6 h at room temperature); 102.22% in data set [6] (plasma, nominal 800 ng∙mL^−1, 15 d, −80 °C); 90.02% in data set [6] (plasma, nominal 800 ng∙mL^−1, autosample at ambient temperature for 6 h); 106.80% in data set [6] (plasma, nominal 800 ng∙mL^−1, freeze–thaw (3 circles)). For the same compound, the parent compound remaining is reported as 68.8% in data set [7] (5 min incubation, 37 °C, NADPH); 20% in data set [7] (45 min incubation); 13% in data set [7] (120 min incubation). For the same compound, in data set [7] (120 min), the metabolic rate is recorded as 87%. In data set [7] (CLint = k × (V/P), V 500 μL, P 0.1 mg), the “intrinsic clearance (CLint)” value was 98.5 μL/min/mg protein. In addition, the “degradation rate constant (k)” value in data set [7] (regression of ln remaining percentage vs incubation time) worked out at 0.0197 min⁻¹.
